Test results from US20130306000A1, “Aflaxtoxin Resistant Poultry” (priority 2012, published 2013).

Assays:
BHA-induced mouse liver = assay type: in vitro ADME
[1] = system: Turkey liver cytosolic GSTs; assay: Turkey liver cytosolic GST activity toward substrates; assay type: biochemical; conditions: turkey liver cytosol

| Molecule | AFB1 detoxification, specific enzyme activity (BHA-induced mouse liver) | activity of turkey liver cytosolic GSTs toward the substrate [1] |
| --- | --- | --- |
| aflatoxin B1 [AFB1] | 0.426 ± 0.04 nmol/min per mg protein |  |
| exo-AFB1-8,9-epoxide [AFBO] |  | not toward |
| O=[N+]([O-])c1ccc(Cl)c(Cl)c1 [DCNB, dichlornitrobenzene] |  | active |
| O=[N+]([O-])c1ccc(Cl)c([N+](=O)[O-])c1 [CDNB, chlorodinitrobenezene] |  | active |
